Data reported in patent publication US20260285857A1, “BICYCLIC AND HETEROCYCLIC AMIDE COMPOUNDS” (priority 2024, published 2026).

Tested on: immunoglobulin light chain protein WIL-FL T46L
Experiment: Differential scanning fluorimetry (thermal shift) assay
Format: binding
Details: temperature shift [Tm]compound-[Tm]vehicle, recombinant WIL-FL T46L

| SMILES | DSF (Table B) | DSF (Table A) |
| --- | --- | --- |
| COC(C)(CS(=O)(=O)NCC12COC(c3nc4c(C)cc(N5CC[C@](C)(c6ccccc6)C5)cn4n3)(C1)C2c1n[nH]c(C)n1)C(=O)O (stereo partly drawn) [Compound 585] | ***** (>2.5° C.=*****) | – |
| Cc1cc(N2CC[C@](C)(c3ccccc3)C2)cn2nc(C(=O)NC34CCC(C(=O)O)(C3)OC4)nc12 (stereo partly drawn) [Compound 181] | – | ***** (>2.5° C.=*****) |
| COC(=O)c1cccc(-c2nc3n(n2)CCN(C(=O)c2nc4c(C)cc(N5CC[C@](C)(c6ccccc6)C5)cn4n2)C3)n1 [Compound 403] | – | ***** (>2.5° C.=*****) |
| Cc1cc(N2CC[C@](C)(c3ccccc3)C2)cn2nc(C(=O)N3CC(O)C3)nc12 [Compound 128] | – | ***** (>2.5° C.=*****) |
| Cc1cc(OC[C@H](C)c2cccc(F)c2)cn2nc(C(=O)NC3CC4(C3)CC(N3CC5C(C3)C5C(=O)O)C4)nc12 (stereo partly drawn) [Compound 310] | – | ***** (>2.5° C.=*****) |
| Cc1cc(N2CC[C@](C)(c3ccccc3)C2)cn2nc(C(=O)NC3CCC34CC(OCC(=O)O)C4)nc12 (stereo partly drawn) [Compound 677, 2-[7-[[8-methyl-6-[(3R)-3-methyl-3-phenyl-pyrrolidin-1-yl]-[1,2,4]triazolo[1,5-a]pyridine-2-carbonyl]amino]spiro[3.3]heptan-2-yl]oxyacetic acid] | ***** (>2.5° C.=*****) | – |
| Cc1cc(N2CC[C@](C)(c3ccccc3)C2)cn2nc(C(=O)N3CC4COCC4(C(=O)O)C3)nc12 (stereo partly drawn) [Compound 604] | ***** (>2.5° C.=*****) | – |
| Cc1cc(N2CC[C@](c3ccccc3)(C(F)F)C2)cn2nc(C(=O)NC3CCN(c4ccnc(C(=O)O)c4)CC3)nc12 [Compound 330] | – | **** (>1.5-2.5° C.=****) |
| Cc1cc(N2CC[C@](C)(c3ccccc3)C2)cn2nc(C(=O)N3C[C@@H]4[C@@H](C(=O)O)CO[C@@H]4C3)nc12 [Compound 595] | ***** (>2.5° C.=*****) | – |
| Cc1cc(N2CC(C)(c3ccccc3)C2)cn2nc(C(=O)N3CC[C@@]4(CCN(c5cccc(C(=O)O)n5)C4)C3)nc12 [Compound 398] | – | ***** (>2.5° C.=*****) |
| Cc1cc(N2CC[C@](C)(c3ccccc3)C2)cn2nc(C(=O)NC3CC4(COC4)C3)nc12 [Compound 18, (R)-8-methyl-6-(3-methyl-3-phenylpyrrolidin-1-yl)-N-(2-oxaspiro[3.3]heptan-6-yl)-[1,2,4]triazolo[1,5-a]pyridine-2-carboxamide] | – | ***** (>2.5° C.=*****) |
| Cc1cc(N2CC[C@](C)(c3ccccc3)C2)cn2nc(C34CC(CO3)C4Cn3cc(C(N)=O)nn3)nc12 (stereo partly drawn) [Compound 92] | – | ***** (>2.5° C.=*****) |
| Cc1cc(OC[C@H](C)c2ccccc2)cn2nc(C34CC(CO3)C4N)nc12 (stereo partly drawn) [Compound 98] | – | *** (>1-1.5° C.=***) |
| Cc1cc(N2CC[C@@](C)(n3ccc(C(F)(F)F)n3)C2)cn2nc(C34CC(CO3)C4c3nc(N)n[nH]3)nc12 (stereo partly drawn) [Compound 496, 5-(1-(8-methyl-6-((R)-3-methyl-3-(3-(trifluoromethyl)-1H-pyrazol-1-yl)pyrrolidin-1-yl)-[1,2,4]triazolo[1,5-a]pyridin-2-yl)-2-oxabicyclo[2.1.1]hexan-5-yl)-1H-1,2,4-triazol-3-amine] | **** (>1.5-2.5° C.=****) | – |
| Cc1cc(N2CC[C@](C)(c3ccccc3)C2)cn2nc(C34CC(N)(CO3)C4)nc12 [Compound 5, 1-[8-methyl-6-[(3R)-3-methyl-3-phenyl-pyrrolidin-1-yl]-[1,2,4]triazolo[1,5-a]pyridine-2-yl]-2-oxabicyclo[2.1.1]hexan-4-amine] | – | ***** (>2.5° C.=*****) |
| Cc1cc(N2CC[C@](C)(c3ccccc3)C2)cn2nc(C(=O)NC3CC4(C3)CC(N3CC5C(C3)C5C(=O)O)C4)nc12 (stereo partly drawn) [Compound 379] | – | ***** (>2.5° C.=*****) |
| Cc1cc(N2CC[C@](C)(c3ccccc3)C2)cn2nc(C(=O)N3CC[C@@](C)(C(=O)O)C3)nc12 [Compound 126] | – | ***** (>2.5° C.=*****) |
| Cc1nc(C2C3(C(=O)O)COC2(c2nc4c(C)cc(N5CC[C@](C)(c6ccccc6)C5)cn4n2)C3)n[nH]1 (stereo partly drawn) [Compound 1A, 5-(5-methyl-1H-1,2,4-triazol-3-yl)-1-(8-methyl-6-((R)-3-methyl-3-phenylpyrrolidin-1-yl)-[1,2,4]triazolo[1,5-a]pyridin-2-yl)-2-oxabicyclo[2.1.1]hexane-4-carboxylic acid] | – | ***** (>2.5° C.=*****) |
| Cc1cc(N2CC[C@](C)(c3ccccc3)C2)cn2nc(C34CC(CO3)C4c3nc(N)n[nH]3)nc12 (stereo partly drawn) [Compound 438, 5-[1-[8-methyl-6-[(3R)-3-methyl-3-phenyl-pyrrolidin-1-yl]-[1,2,4]triazolo[1,5-a]pyridine-2-yl]-2-oxabicyclo[2.1.1]hexan-5-yl]-1H-1,2,4-triazol-3-amine] | – | ***** (>2.5° C.=*****) |
| Cc1cc(N2CC[C@](C)(c3ccccc3)C2)cn2nc(C(=O)NC34COC(C#N)(C3)C4)nc12 [Compound 127] | – | ***** (>2.5° C.=*****) |
| Cc1cc(N2CC[C@](C)(c3ccccc3)C2)cn2nc(C(=O)N3CC[C@@]4(CCN(C5CCCC(C(=O)O)C5)C4)C3)nc12 (stereo partly drawn) [Compound 720] | ***** (>2.5° C.=*****) | – |
| Cc1cc(OC[C@H](C)c2ccccc2)cn2nc(C(=O)NC3COC4(CCOC4)C3)nc12 (stereo partly drawn) [Compound 303] | – | ***** (>2.5° C.=*****) |
| Cc1cnn(CC23COC(c4nc5c(C)cc(N6CC[C@](C)(c7ccccc7)C6)cn5n4)(C2)C3)n1 [Compound 450] | ***** (>2.5° C.=*****) | – |

| SMILES | DSF (Table B) | DSF (Table A) |
| --- | --- | --- |
| CCC1(c2ccccc2)CN(c2cc(CO)c3nc(C(=O)NC)nn3c2)C1 [Compound 391] | – | ***** (>2.5° C.=*****) |
| Cc1cc(N2CC[C@](C)(c3ccc(F)cc3)C2)cn2nc(C(=O)N3CC[C@@]4(CCN(c5cccc(C(=O)O)n5)C4)C3)nc12 [Compound 429] | – | ***** (>2.5° C.=*****) |
| Cc1cc(N2CC[C@](C)(c3ccccc3)C2)cn2nc(C3OC4(C)CC3(C(=O)O)C4)nc12 (stereo partly drawn) [Compound 474, 1-methyl-3-[8-methyl-6-[(3R)-3-methyl-3-phenyl-pyrrolidin-1-yl]-[1,2,4]triazolo[1,5-a]pyridin-2-yl]-2-oxabicyclo[2.1.1]hexane-4-carboxylic acid] | **** (>1.5-2.5° C.=****) | – |
| Cc1cc(N2CC[C@](C)(c3ccccc3)C2)cn2nc(C(=O)NCC3(O)COC3)nc12 [Compound 106] | – | ***** (>2.5° C.=*****) |
| Cc1cc(N2CC[C@](C)(c3ccccc3)C2)cn2nc(C34CC(CO3)C4Cn3cc(C(=O)O)nn3)nc12 (stereo partly drawn) [Compound 91] | – | ***** (>2.5° C.=*****) |
| Cc1cc(N2CC[C@](C)(c3ccccc3)C2)cn2nc(C(=O)N3CCn4nc(-c5cc(C(=O)O)ccn5)nc4C3)nc12 [Compound 405] | – | ***** (>2.5° C.=*****) |
| Cc1cc(N2CC[C@](C)(c3ccccc3)C2)cn2nc(C34CC(CO3)C4CN3CCNC(=O)C3)nc12 (stereo partly drawn) [Compound 84] | – | ***** (>2.5° C.=*****) |
| Cc1cc(N2CC[C@](C)(c3ccccc3)C2)cn2nc(C(=O)N3CCOC4(CCN(c5cccc(C(=O)O)n5)C4)C3)nc12 (stereo partly drawn) [Compound 242] | – | ***** (>2.5° C.=*****) |
| Cc1cc(N2CC[C@](C)(c3ccccc3)C2)cn2nc(C(=O)NC3CC4(C3)CC(N3CC5C(C3)C5C(=O)O)C4)nc12 (stereo partly drawn) [Compound 364] | – | ***** (>2.5° C.=*****) |
| Cc1cc(N2CC[C@](C)(c3ccccc3)C2)cn2nc(C34CC(CC(=O)Nc5cccc(C(=O)O)n5)(CO3)C4)nc12 [Compound 460, 6-[[2-[1-[8-methyl-6-[(3R)-3-methyl-3-phenyl-pyrrolidin-1-yl]-[1,2,4]triazolo[1,5-a]pyridin-2-yl]-2-oxabicyclo[2.1.1]hexan-4-yl]acetyl]amino]pyridine-2-carboxylic acid] | ***** (>2.5° C.=*****) | – |
| Cc1cc(N2CC[C@](C)(c3ccccc3)C2)cn2nc(C34CC(CO)(CO3)C4c3nc(NS(=O)(=O)CC(C)(C)C(=O)O)n[nH]3)nc12 (stereo partly drawn) [Compound 574] | ***** (>2.5° C.=*****) | – |
| Cc1cc(N2CC[C@](C)(c3ccccc3)C2)cn2nc(C34CC(CO3)C4N3C[C@]4(CC[C@H](C(=O)O)CC4)NC3=O)nc12 (stereo partly drawn) [Compound 525] | ***** (>2.5° C.=*****) | – |
| Cc1cc(N2CC[C@](C)(c3ccccc3)C2)cn2nc(C34CC(C(N)=O)(CO3)C4C(N)=O)nc12 (stereo partly drawn) [Compound 45] | – | ***** (>2.5° C.=*****) |
| COC(=O)c1cc(N2CCC(NC(=O)c3nc4c(C)cc(N5CC[C@](C)(c6ccccc6)C5)cn4n3)CC2)ccn1 [Compound 263] | – | ***** (>2.5° C.=*****) |
| Cc1cc(N2CC[C@](C)(c3ccccc3)C2)cn2nc(C(=O)NC3CC4(C3)CC(N3CCCC(C(=O)O)C3)C4)nc12 (stereo partly drawn) [Compound 380] | – | ***** (>2.5° C.=*****) |
| COC(=O)C1CCN(C2COC23CC(NC(=O)c2nc4c(C)cc(N5CC[C@](C)(c6ccccc6)C5)cn4n2)C3)CC1 (stereo partly drawn) [Compound 360] | – | ***** (>2.5° C.=*****) |
| Cc1cc(N2CC[C@](C)(c3ccccc3)C2)cn2nc(C34CC(CNc5cccc(C(=O)O)n5)(CO3)C4)nc12 [Compound 461] | ***** (>2.5° C.=*****) | – |
| COc1ccc([C@@]2(C)CCN(c3cc(C)c4nc(C(=O)N5CC[C@@]6(CCN(c7cccc(C(=O)O)n7)C6)C5)nn4c3)C2)cc1 [Compound 411] | – | ***** (>2.5° C.=*****) |
| Cc1cc(N2CC[C@](C)(c3ccc(Cl)c(Cl)c3)C2)cn2nc(C(=O)N3CC[C@@]4(CCN(c5cccc(C(=O)O)n5)C4)C3)nc12 [Compound 37, 6-[(5R)-2-[6-[(3R)-3-(3,4-dichlorophenyl)-3-methyl-pyrrolidin-1-yl]-8-methyl-[1,2,4]triazolo[1,5-a]pyridine-2-carbonyl]-2,7-diazaspiro[4.4]nonan-7-yl]pyridine-2-carboxylic acid] | – | ***** (>2.5° C.=*****) |
| Cc1cc(N2CC[C@](C)(c3ccccc3)C2)cn2nc(C(=O)N3CCC4(CCCN4c4cccc(C(=O)O)n4)C3)nc12 (stereo partly drawn) [Compound 675, 6-(7-(8-methyl-6-((R)-3-methyl-3-phenylpyrrolidin-1-yl)-[1,2,4]triazolo[1,5-a]pyridine-2-carbonyl)-1,7-diazaspiro[4.4]nonan-1-yl)picolinic acid] | ***** (>2.5° C.=*****) | – |
| Cc1cc(N2CC[C@](C)(c3ccccc3)C2)cn2nc(C(=O)NC3CCCN(c4cccc(C(=O)O)n4)C3)nc12 (stereo partly drawn) [Compound 219] | – | ***** (>2.5° C.=*****) |
| Cc1cc(N2CC[C@](C)(c3ccccc3)C2)cn2nc(C(=O)N3CCC4(CCN(c5ccnc(C(=O)O)n5)C4)C3)nc12 (stereo partly drawn) [Compound 266] | – | ***** (>2.5° C.=*****) |
